ChEMBL document CHEMBL6177957, “Macrocyclic dihydropyridine analogs as pan-BET BD2-preferred inhibitors” (Eur J Med Chem, 2025)
Calls of active or inactive are those of the source. The calls are words filed in the database; no cut-off is given here.

Tests used:
[1] = molecular target: T1, Bromodomain testis-specific protein (Homo sapiens, UniProt Q58F21); experiment: Binding affinity to N-terminal hexa histidine-tagged human BRDT BD1 extracted from Escherichia coli BL21 (DE3) cells assessed as inhibition constant incubated for 1 hrs by fluorescence polarization assay
[2] = molecular target: T2, Bromodomain-containing protein 4 (Homo sapiens, UniProt O60885); experiment: Binding affinity to BRD4 BD2 (unknown origin) assessed as dissociation constant by BROMOscan analysis
[3] = molecular target: T1, Bromodomain testis-specific protein; experiment: Binding affinity to BRDT BD1 (unknown origin) assessed as dissociation constant by BROMOscan analysis
[4] = molecular target: T1, Bromodomain testis-specific protein; experiment: Binding affinity to BRDT BD2 (unknown origin) assessed as dissociation constant by BROMOscan analysis
[5] = molecular target: T2, Bromodomain-containing protein 4; experiment: Binding affinity to BRD4 BD1 (unknown origin) assessed as dissociation constant by BROMOscan analysis
[6] = molecular target: T2, Bromodomain-containing protein 4; experiment: Binding affinity to N-terminal hexa histidine-tagged human BRD4 BD1 extracted from Escherichia coli BL21 (DE3) cells assessed as inhibition constant incubated for 1 hrs by fluorescence polarization assay
[7] = molecular target: T1, Bromodomain testis-specific protein; experiment: Binding affinity to BRDT BD2 (unknown origin) at W293 residue
[8] = molecular target: T1, Bromodomain testis-specific protein; conditions: dose 100.0 µM, time 30.0 min
[9] = molecular target: T1, Bromodomain testis-specific protein; conditions: dose 100.0 µM, time 30.0 min; remark: listed apart in the source
[10] = test system: MM1.S; experiment: Downregulation of c-MYC expression in human MM1.S cells measured after 6 hrs by Western blotting analysis; assay type: functional, cell-based; conditions: dose 0.1-10 µM

Row | SMILES | Ki [1] | also measured
1 | CCn1c2c(c(=O)[nH]c1=O)C1C(=C(C)N2)C(=O)OCc2ccccc2OCCOc2ccccc21 (stereo not drawn) | 5300 nM | 
2 | CCn1c2c(c(=O)[nH]c1=O)C(c1ccc(C)cc1)C(C(=O)OCc1ccccc1)=C(C)N2 (stereo not drawn) | 40 nM | Kd [2]: 65 nM; Kd [3]: 770 nM; Kd [4]: 67 nM; Kd [5]: 380 nM; Ki [6]: 150 nM
3 | CCn1c2c(c(=O)[nH]c1=O)C1C(=C(C)N2)C(=O)OCCCOc2cc(C)ccc21 (stereo not drawn) | 8100 nM | 
4 | CCn1c2c(c(=O)[nH]c1=O)C1C(=C(C)N2)C(=O)OCc2ccccc2OCCCOc2cc(C)ccc21 (stereo not drawn) | 1300 nM | 
5 | CCn1c2c(c(=O)[nH]c1=O)C1C(=C(C)N2)C(=O)OCCCCOc2ccccc21 (stereo not drawn) | 11000 nM | 
6 | CCn1c2c(c(=O)[nH]c1=O)C1C(=C(C)N2)C(=O)OCCCCOc2cc(C)ccc21 (stereo not drawn) | 1700 nM | 
7 | CCn1c2c(c(=O)[nH]c1=O)C1C(=C(C)N2)C(=O)OCCCOc2ccccc21 (stereo not drawn) | 9200 nM | 
8 | CCn1c2c(c(=O)[nH]c1=O)C1C(=C(C)N2)C(=O)OCc2ccccc2OCCOc2cccc1c2 (stereo not drawn) | > 3800 nM | 
9 | CCn1c2c(c(=O)[nH]c1=O)C1C(=C(C)N2)C(=O)OCc2ccccc2OCCCOc2ccccc21 (stereo not drawn) | 1100 nM | Activity [7]: Active; ΔTm [8]: 13 °C; ΔTm [9]: 2.8 °C
10 | CCn1c2c(c(=O)[nH]c1=O)C1C(=C(C)N2)C(=O)OCc2ccccc2OCCCOc2cc1ccc2C (stereo not drawn) | 12000 nM | 
11 | CCn1c2c(c(=O)[nH]c1=O)C1C(=C(C)N2)C(=O)OCc2cccc(c2)OCCCOc2cc1ccc2C (stereo not drawn) | > 3800 nM | Ki [6]: > 3800 nM
12 | CCn1c2c(c(=O)[nH]c1=O)C1C(=C(C)N2)C(=O)NCc2ccccc2OCCCOc2ccccc21 (stereo not drawn) | > 3800 nM | Ki [6]: > 3800 nM
13 | CCn1c2c(c(=O)[nH]c1=O)C1C(=C(C)N2)C(=O)OCc2ccccc2OCCOc2cc1ccc2C (stereo not drawn) | > 3800 nM | 
14 | CCn1c2c(c(=O)[nH]c1=O)C1C(=C(C)N2)C(=O)OCc2ccccc2OCCOc2cc(C)ccc21 (stereo not drawn) |  | ΔTm [8]: 8.9 °C; ΔTm [9]: 3.4 °C; Activity [10]: Dose-dependent-effect
15 | Cc1sc2c(c1C)C(c1ccc(Cl)cc1)=N[C@@H](CC(=O)OC(C)(C)C)c1nnc(C)n1-2 |  | Activity [10]: Dose-dependent-effect
16 | CCn1c2c(c(=O)[nH]c1=O)C1C(=C(C)N2)C(=O)OCc2ccccc2OCCCCOc2ccccc21 (stereo not drawn) | 1900 nM | 
